Legend:
Assay type in all cases: cell-based, human
[1] = system: DU 145 cells; experiment: Cellular [3H]-cholesterol efflux to acceptors in DU 145 cells
Description: (§1) PrEC (Lonza, Walkersville, Md.) was cultured in PrEGM according to the manufacturer's instructions. LNCaP and DU 145 (ATCC, Manassas, Va.) were cultured in RPMI 1640 supplemented with 10% FBS. All three cell lines were obtained directly from the cell banks, and the identities of the cell lines were verified per the cell banks' protocols. Cells were treated with 10 μM T0901317 (Sigma, St. Louis, Mo.) for 24 hours or 5 μM 5-aza-2′-deoxycytidine (Sigma, St. Louis, Mo.) for 7 days, or a combination of the two compounds. ABCA1 promoter (−1132 to +112 relative to the transcription start site) was amplified by PCR and subcloned into the pGL4.20 (Promega, Madison, Wis.). Methylated ABCA1 promoter was in vitro DNA methylated using SssI (NEB, Ipswich, Mass.) and ligated into pGL4.20 prior to transfection. […] Reporter luciferase activity was measured and normalized to control Renilla luciferase activity for each sample. […] Biochemical quantification of intracellular cholesterol was performed as previously described. […] At the end of this chase period, the radioactivity in the medium and cells was determined by liquid scintillation counting, and the percent efflux was calculated as 100×(medium dpm)/(medium dpm+cell dpm). Percent efflux to acceptors was calculated as (percent efflux to acceptor)-(percent efflux to no acceptor). […]

[2] = system: ABCA1 promoter; experiment: ABCA1 promoter/luciferase reporter assay in DU 145 cells; conditions: 10 μM, 24 hours
Description: (§2) PrEC (Lonza, Walkersville, Md.) was cultured in PrEGM according to the manufacturer's instructions. LNCaP and DU 145 (ATCC, Manassas, Va.) were cultured in RPMI 1640 supplemented with 10% FBS. All three cell lines were obtained directly from the cell banks, and the identities of the cell lines were verified per the cell banks' protocols. Cells were treated with 10 μM T0901317 (Sigma, St. Louis, Mo.) for 24 hours or 5 μM 5-aza-2′-deoxycytidine (Sigma, St. Louis, Mo.) for 7 days, or a combination of the two compounds. ABCA1 promoter (−1132 to +112 relative to the transcription start site) was amplified by PCR and subcloned into the pGL4.20 (Promega, Madison, Wis.). Methylated ABCA1 promoter was in vitro DNA methylated using SssI (NEB, Ipswich, Mass.) and ligated into pGL4.20 prior to transfection. The reporter construct was co-transfected with pGL 4.74 vector into DU 145 cells using Nucleofection (Lonza, Walkersville, Md.). Reporter luciferase activity was measured and normalized to control Renilla luciferase activity for each sample. The mean±SEM from triplicate experiments for each experimental group was plotted for comparisons. The different groups were compared using one way ANOVA with Bonferroni's multiple comparison test.

[3] = system: LNCaP cells; experiment: Total cellular cholesterol content in LNCaP cells; conditions: single agent
Description: as §1

[4] = system: ABCA1 transcription; experiment: ABCA1 mRNA expression by realtime RT-PCR in LNCaP cells; conditions: 10 μM T0901317 24 hours, 5 μM 5-aza-2′-deoxycytidine 7 days, or combination, vs mock treated
Description: as §2, with “Cells were treated with 10 μM T0901317 (Sigma, St.” left out, “comparisons. […] Expression of ABCA1 and GAPDH mRNA was measured by realtime RT-PCR as previously described (Yan et al.).” for “comparisons.”, “relative fold change in expression was calculated using the 2^−ΔΔCT method by normalizing to GAPDH mRNA expression in each sample and” for “different groups were”, “to LNCaP mock treated cells. […]” for “using one way ANOVA with Bonferroni's multiple comparison test.”

[5] = system: DU 145 cells; experiment: Total cellular cholesterol content in DU 145 cells; conditions: 10 μM T0901317
Description: as §1

[6] = system: LNCaP cells; experiment: Cellular [3H]-cholesterol efflux to acceptors in LNCaP cells; conditions: for cholesterol efflux to APOA1: acceptor 10 μg/mL APOA1, 4 hours chase; for cholesterol efflux to HDL: acceptor 100 μg/mL HDL, 4 hours chase
Description: PrEC (Lonza, Walkersville, Md.) was cultured in PrEGM according to the manufacturer's instructions. LNCaP and DU 145 (ATCC, Manassas, Va.) were cultured in RPMI 1640 supplemented with 10% FBS. All three cell lines were obtained directly from the cell banks, and the identities of the cell lines were verified per the cell banks' protocols. Cells were treated with 10 μM T0901317 (Sigma, St. Louis, Mo.) for 24 hours or 5 μM 5-aza-2′-deoxycytidine (Sigma, St. Louis, Mo.) for 7 days, or a combination of the two compounds. ABCA1 promoter (−1132 to +112 relative to the transcription start site) was amplified by PCR and subcloned into the pGL4.20 (Promega, Madison, Wis.). Methylated ABCA1 promoter was in vitro DNA methylated using SssI (NEB, Ipswich, Mass.) and ligated into pGL4.20 prior to transfection. The reporter construct was co-transfected with pGL 4.74 vector into DU 145 cells using Nucleofection (Lonza, Walkersville, Md.). Reporter luciferase activity was measured and normalized to control Renilla luciferase activity for each sample. The mean±SEM from triplicate experiments for each experimental group was plotted for comparisons. The different groups were compared using one way ANOVA with Bonferroni's multiple comparison test. For filipin staining, LNCaP and DU 145 cells were grown on glass coverslips, fixed in 3% paraformaldehyde, and stained with 50 μg/mL filipin (Sigma, St. Louis, Mo.). Images were acquired using QCapturePro software (Qlmaging, Surrey, Canada) at the designated magnifications and fixed aperture and exposure time for both cell lines. Biochemical quantification of intracellular cholesterol was performed as previously described. Robinet et al., J Lipid Res. 51(11):3364-9 (2010). The different groups were compared using one way ANOVA with Bonferroni correction. For analysis of cholesterol efflux, cells were labeled with 0.5 μCi/mL [^3H]-cholesterol in RPMI containing 1% FBS for 16 hours at 37° C. After labeling, cells were chased for 4 hours at 37° C. in RPMI with or without acceptors (10 μg/mL APOA1 or 100 μg/mL HDL). At the end of this chase period, the radioactivity in the medium and cells was determined by liquid scintillation counting, and the percent efflux was calculated as 100×(medium dpm)/(medium dpm+cell dpm). Percent efflux to acceptors was calculated as (percent efflux to acceptor)-(percent efflux to no acceptor). LNCaP treatment groups were compared to the mock treated sample using one way ANOVA with Dunnett's correction. Unpaired t test with Welch's correction was used to compare the T0901317-treated with the mock treated DU 145 cells.

[7] = system: ABCA1 promoter; experiment: Methylation-specific PCR (MSP) of the ABCA1 promoter in LNCaP cells; conditions: 5 μM for 7 days
Description: Bisulfite sequencing and methylation-specific PCR (MSP) of the ABCA1 promoter was performed as previously described (Yan et al., PLoS ONE. 2011; 6(6):e20628 (2011). See Table 1 for a list of the primers used.

SMILES | cholesterol efflux to APOA1 ([1]; acceptor 10 μg/mL APOA1, 10 μM T0901317) | cholesterol efflux to HDL ([1]; acceptor 100 μg/mL HDL, 10 μM T0901317) | luciferase reporter activity from methylated ABCA1 promoter ([2]; SssI methylated promoter) | luciferase reporter expression from unmethylated ABCA1 promoter ([2]; unmethylated promoter) | intracellular cholesterol (change vs untreated) [3] | ABCA1 transcription (mRNA expression) [4] | intracellular cholesterol (change vs mock) [5] | cholesterol efflux to APOA1 [6] | cholesterol efflux to HDL [6] | demethylation of ABCA1 promoter [7]
O=S(=O)(c1ccccc1)N(CC(F)(F)F)c1ccc(C(O)(C(F)(F)F)C(F)(F)F)cc1 [T0901317] | significant increase in cholesterol efflux to APOA1 | small, but statistically significant increase in cholesterol efflux to HDL | not induced | significant induction of reporter expression | did not decrease significantly | only modestly induced above baseline | decreased intracellular cholesterol | did not result in robust increases in cholesterol efflux | same overall trend | –
Nc1ncn([C@H]2C[C@H](O)[C@@H](CO)O2)c(=O)n1 [5-aza-2′-deoxycytidine] | – | – | – | – | did not decrease significantly | did not strongly induce ABCA1 transcription | – | did not result in robust increases in cholesterol efflux | same overall trend | confirmed demethylation of ABCA1 promoter
